The structures appear in SMILES notation.

The target in the assay is T1, human TLR9 (Homo sapiens, UniProt Q9NR96).
T1 sequence (Q9NR96 26-1032): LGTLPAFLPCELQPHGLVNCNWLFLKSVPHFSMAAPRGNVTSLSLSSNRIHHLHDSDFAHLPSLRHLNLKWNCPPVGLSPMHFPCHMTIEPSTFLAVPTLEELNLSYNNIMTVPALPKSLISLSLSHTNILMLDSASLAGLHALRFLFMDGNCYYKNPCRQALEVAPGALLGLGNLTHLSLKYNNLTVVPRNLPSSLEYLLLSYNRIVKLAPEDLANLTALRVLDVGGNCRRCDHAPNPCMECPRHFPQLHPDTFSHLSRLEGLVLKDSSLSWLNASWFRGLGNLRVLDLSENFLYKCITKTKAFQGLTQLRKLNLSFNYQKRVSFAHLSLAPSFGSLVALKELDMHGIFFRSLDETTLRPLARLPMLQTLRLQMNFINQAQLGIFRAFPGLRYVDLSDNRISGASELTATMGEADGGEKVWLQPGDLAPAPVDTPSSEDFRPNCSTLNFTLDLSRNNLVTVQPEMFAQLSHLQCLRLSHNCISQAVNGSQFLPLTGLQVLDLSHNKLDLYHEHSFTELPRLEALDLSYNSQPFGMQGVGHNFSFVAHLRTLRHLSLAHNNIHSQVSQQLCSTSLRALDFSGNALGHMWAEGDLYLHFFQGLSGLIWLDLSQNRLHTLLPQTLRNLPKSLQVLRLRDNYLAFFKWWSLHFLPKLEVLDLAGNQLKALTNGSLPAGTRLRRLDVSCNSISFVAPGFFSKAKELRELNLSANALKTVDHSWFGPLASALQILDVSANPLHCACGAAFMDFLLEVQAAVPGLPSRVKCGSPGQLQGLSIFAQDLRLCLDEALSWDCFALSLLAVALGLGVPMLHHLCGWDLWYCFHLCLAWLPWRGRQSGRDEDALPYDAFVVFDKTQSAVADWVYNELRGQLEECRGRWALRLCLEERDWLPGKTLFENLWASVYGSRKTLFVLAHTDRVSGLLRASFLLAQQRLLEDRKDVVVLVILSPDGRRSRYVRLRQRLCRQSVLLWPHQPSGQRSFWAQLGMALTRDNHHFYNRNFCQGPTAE
The assay is described as follows: HEK293-Blue-hTLR-9 cells assay. To be noted: HEK293-Blue-hTLR9 cells, ODN2006 stimulation, 20 hrs, SEAP reporter; read-out: HEK/hTLR9 IC50. The class given is cell-based. The method, boiled down: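 Antagonist mode in HEK293-Blue hTLR9 reporter cells (SEAP under NF-κB/AP-1 sites), stimulated with ODN2006 added from a 20 uM solution. Serially diluted compound (1% DMSO final) was incubated 20 hrs at 37° C. Supernatant SEAP was developed with QUANTI-Blue for 2 h at 37° C and read at 620˜655 nm.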
Consider `C[C@@H]1CN(c2ccc(C#N)c3ncsc23)C[C@@H]2c3ccc(N4CCNCC4)cc3CN12` [Example 6, 7-[(4R,10bS)-4-methyl-8-piperazin-1-yl-3,4,6,10b-tetrahydro-1H-pyrazino[2,1-a]isoindol-2-yl]-1,3-benzothiazole-4-carbonitrile], for which the IC50 was determined as 156 nM. As to `C[C@@H]1CN(c2ccc(C#N)c3ncccc23)C[C@@H]2c3ccc(N4C[C@@H](N)[C@](C)(O)C4)cc3CN12` [Example 45A, 5-[(4R,10bS)-8-[(3R,4R)-4-amino-3-hydroxy-3-methyl-pyrrolidin-1-yl]-4-methyl-3,4,6,10b-tetrahydro-1H-pyrazino[2,1-a]isoindol-2-yl]quinoline-8-carbonitrile], the IC50 came out at 78.3 nM. Under `CO[C@H]1CCN(c2ccc3c(c2)CN2[C@H](C)CN(c4ccc(C#N)n5nccc45)C[C@H]32)C[C@H]1N` [Example 106, 4-[(4R,10bS)-8-[(3R,4S)-3-amino-4-methoxy-1-piperidyl]-4-methyl-3,4,6,10b-tetrahydro-1H-pyrazino[2,1-a]isoindol-2-yl]pyrazolo[1,5-a]pyridine-7-carbonitrile] stands 135 nM; under `C[C@@H]1CN(c2ccc(C#N)c3ncccc23)C[C@@H]2c3ccc(OCCN(C)C)cc3CN12` [Example 25, 5-[(4R,10bS)-8-[2-(dimethylamino)ethoxy]-4-methyl-3,4,6,10b-tetrahydro-1H-pyrazino[2,1-a]isoindol-2-yl]quinoline-8-carbonitrile], 116 nM.

As to `C[C@@H]1CN(c2ccc(C#N)c3ncccc23)C[C@@H]2c3ccc(N4C[C@@H](N)[C@H](O)C4)cc3CN12` (single isomer, unassigned) [Example 40B], the IC50 stood at 70.8 nM. For `C[C@@H]1CN(c2ccc(C#N)c3ncccc23)C[C@@H]2c3ccc(N4C[C@@H](N)[C@H](F)C4)cc3CN12` [Example 48, 5-[(4R,10bS)-8-[(3R,4R)-3-amino-4-fluoro-pyrrolidin-1-yl]-4-methyl-3,4,6,10b-tetrahydro-1H-pyrazino[2,1-a]isoindol-2-yl]quinoline-8-carbonitrile] the value was 193 nM; for `COC1CN(c2ccc3c(c2)CN2C3CN(c3ccc(C#N)c4ncccc34)C[C@H]2C)CC1N` (single isomer, unassigned) [Example 16B], 97.5 nM. Under `CO[C@@H]1CN(c2ccc3c(c2)CN2[C@H](C)CN(c4ccc(C#N)n5nccc45)C[C@H]32)CC[C@H]1N` [Example 104, 4-[(4R,10bS)-8-[(3R,4R)-4-amino-3-methoxy-1-piperidyl]-4-methyl-3,4,6,10b-tetrahydro-1H-pyrazino[2,1-a]isoindol-2-yl]pyrazolo[1,5-a]pyridine-7-carbonitrile] stands 90.3 nM; under `C[C@@H]1CN(c2ccc(C#N)c3ncccc23)C[C@@H]2c3ccc(N4C[C@H](N)[C@@H](O)C4)cc3CN12` [Example 40A, 5-[(4R,10bS)-8-[(3S,4S)-3-amino-4-hydroxy-pyrrolidin-1-yl]-4-methyl-3,4,6,10b-tetrahydro-1H-pyrazino[2,1-a]isoindol-2-yl]quinoline-8-carbonitrile], 59.5 nM. As for `C[C@@H]1CN(c2ccc(C#N)c3ncccc23)C[C@@H]2c3ccc(N4CC5(CNC5)C4)cc3CN12` [Example 36, 5-[(4R,10bS)-8-(2,6-diazaspiro[3.3]heptan-2-yl)-4-methyl-3,4,6,10b-tetrahydro-1H-pyrazino[2,1-a]isoindol-2-yl]quinoline-8-carbonitrile], the IC50 amounted to 100 nM. Under `C[C@@H]1CN(c2ccc(C#N)c3ncccc23)C[C@@H]2c3cccc(N4CCNCC4)c3CN12` [Example 8, 5-[(4R,10bS)-4-methyl-7-piperazin-1-yl-3,4,6,10b-tetrahydro-1H-pyrazino[2,1-a]isoindol-2-yl]quinoline-8-carbonitrile] stands 150 nM; under `CN[C@H]1CN(c2ccc3c(c2)CN2[C@H](C)CN(c4ccc(C#N)c5ncccc45)C[C@H]32)C[C@@H]1O` [Example 42, 5-[(4R,10bS)-8-[(3S,4S)-3-hydroxy-4-(methylamino)pyrrolidin-1-yl]-4-methyl-3,4,6,10b-tetrahydro-1H-pyrazino[2,1-a]isoindol-2-yl]quinoline-8-carbonitrile], 65.4 nM; under `[2H]c1ccc2c(N3C[C@@H](C)N4Cc5cc(N[C@H]6CNC[C@H]6F)ccc5[C@H]4C3)ccc(C#N)c2n1` [Example 91, 5-[(4R,10bS)-8-[[(3S,4R)-4-fluoropyrrolidin-3-yl]amino]-4-methyl-3,4,6,10b-tetrahydro-1H-pyrazino[2,1-a]isoindol-2-yl]-2-deuterio-quinoline-8-carbonitrile], 70.5 nM.

In the case of `C[C@@H]1CN(c2ccc(C#N)c3ncccc23)C[C@@H]2c3ccc(N4CCNC[C@H]4CO)cc3CN12` [Example 11, 5-[(4R,10S)-8-[(2S)-2-(hydroxymethyl)piperazin-1-yl]-4-methyl-3,4,6,10b-tetrahydro-1H-pyrazino[2,1-a]isoindol-2-yl]quinoline-8-carbonitrile], the IC50 came out at 92 nM. For `C[C@@H]1CN(c2ccc(C#N)c3nccnc23)C[C@@H]2c3ccc(N4CCNCC4)cc3CN12` [Example 7, 8-[(4R,10bS)-4-methyl-8-piperazin-1-yl-3,4,6,10b-tetrahydro-1H-pyrazino[2,1-a]isoindol-2-yl]quinoxaline-5-carbonitrile] the value was 99.2 nM; for `C[C@@H]1CN(c2ccc3c(c2)CN2[C@H](C)CN(c4ccc(C#N)n5nccc45)C[C@H]32)CCN1` [Example 97, 4-[(4R,10bS)-4-methyl-8-[(3R)-3-methylpiperazin-1-yl]-3,4,6,10b-tetrahydro-1H-pyrazino[2,1-a]isoindol-2-yl]pyrazolo[1,5-a]pyridine-7-carbonitrile], 161 nM. As to `C[C@@H]1CN(c2ccc(C#N)c3ncccc23)C[C@@H]2c3ccc(N4CCNC[C@@](C)(O)C4)cc3CN12` [Example 55B, 5-[(4R,10bS)-8-[(6R)-6-hydroxy-6-methyl-1,4-diazepan-1-yl]-4-methyl-3,4,6,10b-tetrahydro-1H-pyrazino[2,1-a]isoindol-2-yl]quinoline-8-carbonitrile], the IC50 turned out to be 156 nM.

Consider `C[C@@H]1CN(c2ccc(C#N)c3ncccc23)C[C@@H]2c3ccc(N4CC5(CCN5)C4)cc3CN12` [Example 37, 5-[(4R,10bS)-8-(1,6-diazaspiro[3.3]heptan-6-yl)-4-methyl-3,4,6,10b-tetrahydro-1H-pyrazino[2,1-a]isoindol-2-yl]quinoline-8-carbonitrile], for which the IC50 is 103 nM. With `C[C@@H]1CN(c2ccc(C#N)c3ncccc23)C[C@@H]2c3ccc(C4CNC4)cc3CN12` [Example 29, 5-[(4R,10bS)-8-(azetidin-3-yl)-4-methyl-3,4,6,10b-tetrahydro-1H-pyrazino[2,1-a]isoindol-2-yl]quinoline-8-carbonitrile], the IC50 came to 43.3 nM. For `C[C@@H]1CN(c2ccc(C#N)c3ncccc23)C[C@@H]2c3ccc(N4CC[C@@H](N)C4)cc3CN12` [Example 20, 5-[(4R,10bS)-8-[(3R)-3-aminopyrrolidin-1-yl]-4-methyl-3,4,6,10b-tetrahydro-1H-pyrazino[2,1-a]isoindol-2-yl]quinoline-8-carbonitrile], the IC50 was 86.9 nM.

Regarding `C[C@@H]1CN(c2ccc(C#N)c3ncccc23)C[C@@H]2c3ccc(N[C@@H]4CNC[C@@H]4F)cc3CN12` [Example 32, 5-[(4R,10bS)-8-[[(3R,4S)-4-fluoropyrrolidin-3-yl]amino]-4-methyl-3,4,6,10b-tetrahydro-1H-pyrazino[2,1-a]isoindol-2-yl]quinoline-8-carbonitrile], the IC50 turned out to be 89.2 nM. Under `C[C@@H]1CN(c2ccc(C#N)n3nccc23)C[C@@H]2c3ccc(N4C[C@H](N)[C@@H](O)C4)cc3CN12` [Example 111, 4-[(4R,10bS)-8-[(3S,4S)-3-amino-4-hydroxy-pyrrolidin-1-yl]-4-methyl-3,4,6,10b-tetrahydro-1H-pyrazino[2,1-a]isoindol-2-yl]pyrazolo[1,5-a]pyridine-7-carbonitrile] stands 38 nM; under `C[C@@H]1CN(c2ccc(C#N)c3ncccc23)C[C@@H]2c3ccc(N4CC(C)(N)C4)cc3CN12` [Example 39, 5-[(4R,10bS)-8-(3-amino-3-methyl-azetidin-1-yl)-4-methyl-3,4,6,10b-tetrahydro-1H-pyrazino[2,1-a]isoindol-2-yl]quinoline-8-carbonitrile], 123 nM.

Values taken from patent US12157746B2, “Tetrahydro-1H-pyrazino[2,1-a]isoindolylquinoline compounds for the treatment of autoimmune disease” (F. HOFFMANN-LA ROCHE AG, priority 2018, dated 2024).
